From patent publication US20170056559A1, “Active Agent-Particle Combination Supporting Bone Regeneration” (ECOLE POLYTECHNIQUE FEDERALE DE LAUSANNE (EPFL), priority 2014, published 2017)

Key:
[1] = tested on: RAW 264.7 murine macrophages; test: Cell proliferation assay with RAW 264.7 macrophages (CellTiter 96 AQueous One Solution); type: cell-based; details: Zoledronate concentrations from 0.16 to 40 μM
Protocol: An aqueous Zoledronate solution with a concentration of 2 mg/ml was prepared and sterile filtered. The drug solution was diluted with CCM to a final concentration of 80 μM of Zoledronate. A further dilution with CCM gave Zoledronate supplemented medium (Zol-CCM) with concentrations of 80 μM, 40 μM, 20 μM, 10 μM, 5 μM, 2.5 μM and 1.25 μM. The dilution procedure was repeated with an aqueous dispersion containing 2 mg/ml Zoledronate and 20 mg/ml nHA (nHA-Zol-CCM). The macrophages were seeded with a density of 2500 cell per well in 96-well plates (Microtest™ 96, Becton Dickinson Labware, NJ, USA) and incubated with 100 μl CCM at standard incubation conditions (37° C., 5% CO2). After 24 h of incubation, 100 μl of CCM, Zol-CCM or nHA-Zol-CCM were added to the cells, the final Zoledronate concentrations in the CCM were therefore 40 μM, 20 μM, 10 μM, 5 μM, 2.5 μM, 1.25 μM and 0.625 μM. A cell proliferation assay (CellTiter 96® AQueous One Solution, Promega, Wis., USA) was performed after 24, 48 and 72 hours of cell exposure to the modified CCM. The absorbance was measured with a plate reader (Wallac 1420 Victor 2, Perkin Elmer, Waltham, Mass., USA). Background plates with only the modified media were measured at all time points to avoid a bias due to the nHA particles in the dispersions.

[2] = tested on: rat femoral model of postmenopausal osteoporosis; test: In vivo microCT static and dynamic histomorphometry around femoral screws in ovariectomized rats
Protocol: The in vivo study in a rat femoral model of postmenopausal osteoporosis was performed following a well-established protocol. All animal procedures were approved by the local animal care and use committee (license no. 2508.1, EXPANIM, SCAV, Epalinges, Switzerland).
Eight virgin female Wistar rats (Janvier Labs, Saint-Berthevin, France) were ovariectomized bilaterally with a dorsal approach at an age of 17 weeks and a weight of 295±18 g to induce an estrogen deficiency related bone loss. The rats were housed 4 per cage under 12 h light to 12 h dark cycles at 22° C. room temperature with 55% humidity. They were fed with a standard rodent diet (KLIBA NAFAG 3436, Provimi Kliba AG, Switzerland) and tab water at libitum. […]
In vivo microCT scans (Skyscan 1076, Bruker microCT, Kontich, Belgium) of the right femur only were performed one day before OVX and one day before screw implantation in order to confirm the bone loss caused by the estrogen deficiency. […] The image taken for the evaluation of the bone loss and for dynamic histomorphometry were processed and analyzed using the softwares Amira® (FEI Vizualisation Sciences Group, Burlington, USA) and CTan (Bruker microCT, Kontich, Belgium). […] For an analysis of the spatio-temporal effect, the static and dynamic bone parameters were analyzed in 4 layers of 368 μm each around the screw. […]

peri-implant bone = details: Zoledronate locally delivered from a hyaluronic acid hydrogel; cited from earlier work

## O=P(O)(O)C(O)(Cn1ccnc1)P(=O)(O)O [Zoledronate]
[1]
  cell proliferation: dose-depended proliferation decrease
[2]; between days 10 and 31, locally delivered
  bone resorption/demineralization peak: completely inhibited
[2]; later during the study
  resorption of bone and degradation of the biomaterial: efficiently inhibited the resorption of present and newly formed bone
peri-implant bone
  increase of early bone formation rate: up to 100%
  peri-implant bone resorption: efficiently inhibiting peri-implant bone resorption
